The subject of data set [1] is YFP-NS3pro-NS4A. In words: degradation pathway of YFP-NS3pro-NS4A in HeLa cells. It is filed as cell-based. The conditions noted are these: ASV 1 μM, 18 to 24 hours post-transfection, MG132 10 μM, bortezomib 66 nM, chloroquine 100 μM, bafilomycin-A1 200 nM. The source says:
FIGS. 8A-8D show characterization of a degron contained in NS3pro-NS4A. […] The hydrophobic N-terminal of NS4A then inserts into the membrane (right). Elements are numbered from N-terminus to C-terminus to clarify order of linkage. […] Removal of the NS3 helicase domain may expose hydrophobic residues in the helicase C-terminus and prevent cleavage at the NS3/4A site, preventing membrane insertion of NS4A. Models were generated using PDB file 1CU1. […] HeLa cells expressed YFP (FIG. 8C) or PSD95 (FIG. 8D) fused to NS3pro-NS4A (wt), or the degron-disrupted mutant (GGS). From 18 to 24 hours post-transfection, cells were treated with ASV (1 μM) and degradation inhibitors (MG, MG132 10 μM; BTZ, bortezomib 66 nM; CHQ, chloroquine 100 μM; BAF, bafilomycin-A1 200 nM). This short time window was used to avoid toxicity by degradation inhibitors. Final DMSO concentration was 0.23% (v/v) for all conditions in (FIG. 8C) and 0.33% for all conditions in (FIG. 8D).
To determine which cellular proteolytic pathways were responsible for degrading NS3pro-NS4A fusions, we examined the effect of inhibiting proteasomes or autophagosomes. We allowed cells expressing YFP-NS3pro-NS4A to produce uncleaved YFP-NS3pro-NS4A in asunaprevir while applying inhibitors of proteasome or autophagosome degradation (FIG. 8C).
Chemical Reagents. […]. Further serial dilutions were performed for the dose-dependency experiment. For long-term CLV and ASV incubations, drug was applied simultaneously with transfection media or 1-2 hours after transfection. MG132 (Sigma) was dissolved in DMSO for a 1000× working stock of 10 mM. Bortezomib (Adooq Biosci.) was dissolved in DMSO for a 500× working stock of 33 μM. Chloroquine diphosphate salt (Sigma) was dissolved in H2O for a 1000× (100 mM) working stock. Bafilomycin A1 (Santa Cruz) was dissolved in DMSO for a 500× (100 μM) working stock. Azidohomoalanine (AHA) (Click-IT, Invitrogen) was dissolved in DMSO for a 500× working stock of 25 mM. Alkyne-PEG4-biotin (Invitrogen) was dissolved in DMSO for a 100× working stock of 4 mM. L-cystine dihydrochloride (Sigma) was dissolved in H2O pH 2.0 for a working stock of 0.1 M.

For data set [2], the system named is MeV-EGFP. Nature of the data set: drug effect on parental MeV-EGFP in infected Vero cells. The conditions noted are these: presence of asunaprevir, 72 hours.
Data set [3] concerns SMASh-YFP or YFP-SMASh. In words: SMASh tag at either terminus of YFP in HEK293 cells. The settings on record: HEK293, 24 hours. It is filed as cell-based. The source says:
NS3 protease sequence (light gray), sequence derived from NS3 helicase (dark gray), and sequence derived from NS4A (medium gray) are shown. NS5A/5B-based protease substrate site is in dark gray. […] DMSO was used as vehicle control. β-actin served as a loading control. […] Scale bar, […].

The subject of data set [4] is panel of cellular proteases. The conditions noted are these: 1.5 μM; cited from earlier work.
Data set [5] deals with SMASh-YFP or YFP-SMASh. In words: drug repression of SMASh-tagged YFP in budding yeast. The conditions noted are these: 24 hours, SD media. Type of data set: cell-based, S. cerevisiae. An excerpt: When expressed in yeast from an episomal gene, we found the C-terminal SMASh tag with a protease cleavage site of sequence DEMEEC/S was able to confer drug repression on YFP expression, similarly to its performance in mammalian cells (FIG. 5A, lane 4-6). However, the N-terminal SMASh tag and fast-cleaving site (EDVVPC/S) used in mammalian cells allowed leaky expression of YFP in yeast in the presence of drug (data not shown). […] . […] To the best of our knowledge, SMASh is the first method that uses a single genetic element to impose drug control over the expression of specific proteins in yeast.
Yeast Strains and Cell Growth.

The test system of data set [6] is YSH1-SMASh yeast. Nature of the data set: yeast spotting assay, YSH1-SMASh knock-in. The conditions noted are these: ASV (10 μM), 48 hours.
Data set [7] deals with SEC14-SMASh yeast. Nature of the data set: yeast spotting assay, SEC14-SMASh knock-in. The conditions noted are these: ASV (3 μM), 48 hours.
Data set [8] relates to MeV-EGFP-P-SMASh. Nature of the data set: drug control of MeV-EGFP-P-SMASh in infected Vero cells.
The conditions of data set [9]: in vivo, po; cited from earlier work.
For data set [10], the system named is SMASh-Arc. In words: optimization of N-terminal SMASh tag on Arc in HEK293 cells, immunoblot. The conditions noted are these: HEK293, 24 hours. (Immunoblotting shows a protein as a band on a membrane.)
In data set [11] the test system is AID target protein expressed from the ADH promoter. The conditions noted are these: cited from earlier work.
Data set [12] deals with GluRIIA-CFP-SMASh (Hepatitis C virus genotype 1a, UniProt P27958, T1080A/T1100M/T1173A). It is filed as cell-based, Drosophila. The conditions noted are these: HEK293, 24 hours.
Data set [13] relates to HEK293 cells. Nature of the data set: protein half-life by SMASh shutoff, immunoblotting and mathematical model.

Entries after “also recorded” stand apart in the source; their conditions may differ. Peptide text beside a SMILES is read from it. * marks the point of attachment. Cbz = O=C(OCc1ccccc1)*

`CC(C)C[C@@H](C=O)NC(=O)[C@H](CC(C)C)NC(=O)[C@H](CC(C)C)NC(=O)OCc1ccccc1` [MG132] (Cbz-Leu-Leu-Leu-aldehyde): the YFP-NS3pro-NS4A protein levels entry in [1] is “modestly increased”.

On to `C=C[C@@H]1C[C@]1(NC(=O)[C@@H]1C[C@@H](Oc2ncc(OC)c3ccc(Cl)cc23)CN1C(=O)[C@@H](NC(=O)OC(C)(C)C)C(C)(C)C)C(=O)NS(=O)(=O)C1CC1` [asunaprevir], for which the “EGFP expression and formation of syncytia by parental virus” value in data set [2] is “unaffected”. For the same compound, in data set [3], the “YFP fluorescence in living cells” value is listed as “nearly undetectable”. The “cleaved and full-length YFP protein, immunoblot” value in data set [3] (N-terminal or C-terminal fusions) is “significantly reduced”. In addition, in data set [4], the “activity against a panel of cellular proteases” value is reported as “no activity”. Moreover, the “YFP expression, episomal, GPD promoter” value in data set [5] (3 μM asunaprevir) is given as “undetectable levels; also recorded: completely suppressed”. Moreover, the “YFP expression, YFP-SMASh integrated into yeast chromosome, GPD promoter” value in [5] (ASV, immunoblot) is “shutoff”. Moreover, in data set [6], the “growth of YSH1-SMASh yeast” value is “suppressed”. The “growth of SEC14-SMASh yeast” value in [7] was “complete growth inhibition”. In data set [8] (3 μM ASV, 3 days post-transfection (so in the source), Vero cells), the “suppression of EGFP fluorescence compared to the untreated case” value is 97.3%. In data set [8] (presence of asunaprevir), the “P production in virus-infected cells, immunoblotting” value is given as “efficiently inhibited”. The “EGFP expression and formation of syncytia” value in [8] (presence of asunaprevir, Vero cells, 72 hours) was “completely abolished”. Also, the “concentration that can be maintained in plasma and organs for hours” value in data set [9] is 0.15 µM. In addition, in data set [10], the “Arc protein suppression, 6-aa linker with the NS5A/5B substrate” value is reported as “complete protein suppression” and the “Arc protein suppression, 18-aa linker with the NS5A/5B substrate” value is “incomplete”.

For `O=C(O)Cc1c[nH]c2ccccc12` [auxin], the “concentration required for AID to degrade a target protein” value in data set [11] was 1000 µM.

For `CO/C1=C\C(C)=C\[C@@H](C)[C@@H](O)[C@@H](C)C/C(C)=C/C=C/[C@H](OC)[C@@H]([C@@H](C)[C@@H](O)[C@H](C)[C@@]2(O)C[C@@H](O)[C@H](C)[C@@H](C(C)C)O2)OC1=O` [bafilomycin A1], the YFP-NS3pro-NS4A protein levels entry in data set [1] is reported as “modestly increased”.

Consider `CC(C)C[C@H](NC(=O)[C@H](Cc1ccccc1)NC(=O)c1cnccn1)B(O)O` [bortezomib], for which the YFP-NS3pro-NS4A protein levels result in data set [1] was “modestly increased”.

On to `CCN(CC)CCCC(C)Nc1ccnc2cc(Cl)ccc12` (centres unmarked) [chloroquine], for which the YFP-NS3pro-NS4A protein levels result in data set [1] is “modestly increased”.

Regarding `COc1ccc2c(O[C@@H]3C[C@H]4C(=O)N[C@]5(C(=O)O)C[C@H]5/C=C\CCCCC[C@H](NC(=O)OC5CCCC5)C(=O)N4C3)cc(-c3csc(NC(C)C)n3)nc2c1` [ciluprevir], the GluRIIA expression entry in [12] was “shutoff”.

“CYP21A2: short-lived protein, released from CYP21A2-SMASh by cleavage”: in data set [13], the “acceleration of degradation by SMASh” value is given as 9 fold and the “decay rate constant kdeg” value amounted to 8.67e-05 s⁻¹. In data set [13] (24-28 hours post-transfection), the “production rate constant ksyn” value was found to be 0.438 h⁻¹.
